According to paper PMC12135066, “Design and Preclinical Evaluation of Novel uPAR-Targeting Radiopeptides Modified with an Albumin-Binding Entity” (Molecular Pharmaceutics, 2025):
Read-outs that look alike come from different tables or passages of the source.

What was measured:
[1] = in vitro; settings: human, plasma
Description: The radiopeptides (50 MBq/nmol) stabilized with L-ascorbic acid were diluted in mouse and human blood plasma and incubated at 37 °C. Aliquots were taken after 1, 4, and 24 h and analyzed using reversed-phase thin-layer chromatography (TLC) (Supporting Information).
aProduct peak expressed as percentage of the sum of integrated peak areas of the entire chromatogram relative to
the value obtained immediately after labeling (set as 100%), average ± standard deviation (SD) (n=3).
Stability of the Radiopeptides in Mouse and Human Blood Plasma
Purpose: The stability of the radiopeptides was assessed in mouse and human blood plasma as an
indication for their in vivo stability.
Methods: The radiopeptides (50 MBq/nmol) stabilized with L-ascorbic acid were diluted in mouse
blood plasma (Lot: 32321, Rockland Immunochemicals Inc., U.S.A.) or in human blood plasma
(Stiftung Blutspende SRK Aargau -Solothurn, Switzerland) at a concentration of 10 MBq/200 µL and
incubated at 37 °C over a 24 h time period. Control samples were prepared by diluting the radiopeptides
in saline at the same activity concentration. Aliquots of each dilution were taken after 1 h, 4 h, and 24 h
(2 µL, ~100 kBq) and investigated employing thin layer chromatography (TLC) methods on reversed-
phase TLC plates (MERCK Analytical Chromatography, TLC Silica gel 60 RP -18 F254s) as stationary
phase and a 3/7 (v/v) mixture of acetonitrile /citrate buffer (0.1 M, pH 5.5) as mobile phase. A dilution
of [177Lu]LuCl3/HCl 0.04 M (10 MBq/200 µL) was added on each TLC plate. The developed and dried
TLC plates were exposed to a phosphor screen (Super resolution screen PSR10450013, PerkinElmer)
for 1 min. The screen was read with a Cyclone Plus phosphor imager (PerkinElmer) and the peak
quantification was performed using OptiQuant Software (version 5.0).

[2] = system: HEK-uPAR xenograft-bearing nude mice; settings: mouse, in vivo
Description: (§1) All applicable international, national, and/or institutional guidelines for the care and use of laboratory animals were followed, and the herein reported experiments were carried out according to the guidelines of the Swiss Regulations for Animal Welfare. The preclinical studies were ethically approved by the Cantonal Committee of Animal Experimentation and permitted by the responsible cantonal authorities (License No. 75721). Five-week-old female CD1/nude (Crl:CD1-Foxn ^ nu ) and female immunocompetent FVB (FVB/NCrl) mice were obtained from Charles River Laboratories (Sulzfeld, Germany). All mice were acclimatized for at least 7 days, receiving standard rodent chow ad libitum before being included in the reported studies. The CD1/nude mice were subcutaneously inoculated with HEK-uPAR cells (7 × 10^6 cells in 100 μL PBS) on the right shoulder. […] Typically, it took 3–11 weeks to reach xenograft volumes of 40–600 mm^3 at the time of testing the tissue distribution of the radiopeptides. The immunocompetent FVB mice were used for testing the in vivo stability of the radiopeptides.
(§2) The mice were injected with the radiopeptides (5 MBq, 0.5 nmol, 100 μL) in saline containing 0.05% BSA and sacrificed at 4 and 24 h after injection of the radiopeptides. Selected tissues and organs were collected, weighed, and measured with the γ-counter (1480 Wizard, PerkinElmer). […] A p-value of <0.05 was considered a statistically significant difference (GraphPad Prism software, version 8.3.1).
(§3) Decay-corrected data is shown as average ± SD of n = 3 animals of % injected activity per gram (IA/g) tissue.

[3] = in vivo; settings: female, mouse, total radioactivity
Description: as §1, §2, §3

[4] = target: T1, human uPAR (Homo sapiens, UniProt Q03405); assay: uPAR-binding affinity (KD values), saturation experiments with HEK-uPAR cells; settings: saturation binding on HEK-uPAR cells, on ice (4 °C) 1 h, 1–1600 nM radiopeptide, ± AE105 40 µM; γ-counter; nonlinear regression; average ± SD, n=3
T1 construct: host or cells: HEK cells (HEK-uPAR)
Description: To determine the uPAR-binding affinity of the radiopeptides, saturation experiments were performed using HEK-uPAR cells in 48-well plates (Supporting Information). The cells were incubated on ice for 1 h in the presence or absence of excess AE105 (final concentration of 40 μM) together with the respective radiopeptide at a concentration range of 1–1600 nM. After rinsing the cells with PBS, they were lysed with an aqueous NaOH solution (1 M, 600 μL), transferred to radioimmunoassay tubes, and measured in a γ-counter (1480 Wizard, PerkinElmer). The K D values were determined by plotting the specific binding (values of samples incubated without AE105 minus the values of samples incubated with AE105) against the molar concentration of the added peptide. A nonlinear regression analysis was performed using GraphPad Prism software (version 8.3.1). The results were expressed as average ± SD of n = 3 independently performed experiments. […]
7. Determination of uPAR-Binding Affinity (KD Values)
Purpose: The uPAR-binding affinity of the radiopeptides were determined to investigate the impact of structural changes on the receptor binding.
Methods: HEK-uPAR cells were seeded in poly-D-lysine-coated 48-well plates (0.25 × 10 6 in 0.5 mL per well) using DMEM cell culture medium with supplements. The cells were incubated at 37 °C and 5% CO2 overnight to allow adhesion and growth. After removing the supernatant, the well plates with HEK-uPAR cells were placed on ice to prevent internalization of the radiopeptides. The cells were rinsed with cold PBS (0.5 mL, pH 7.4) followed by the addition of DMEM cell culture medium without supplements (450 µL/well) in the presence or absence of AE105 ( final concentration 40 µM) as a receptor-blocking agent. The radiopeptides (5 MBq/nmol) were diluted in PBS to obtain peptide concentrations ranging from 10 ‒16000 nM. From each dilution, 50 µL were added to each well to obtain final peptide concentrations of 1 nM to 1600 nM. The cells were incubated at 4 °C for 1 h before rinsing twice with PBS (0.5 mL, pH 7.4). The cells were lysed using an aqueous NaOH solution (1 M, 600 µL) and the lysates were transferred to RIA tubes for counting the activity in a γ-counter (1480 Wizard, PerkinElmer) . The KD values were determined by plotting specific binding (total binding minus unspecific binding) against the molar concentration of the added radiopeptide using GraphPad Prism (version 8.3.1). the results were then expressed as average K D values ± SD of n = 3 independent […]
Results: The results are reported in the main article.

[5] = physchem; settings: pH 7.4
[6] = in vitro; settings: mouse, plasma
[7] = target: T1, human uPAR; settings: reported value; ref not printed (citation marks lost in b4); read-out: binding affinity to human uPAR (KD); cited from earlier work
Description: The expression pattern of uPAR makes it a relevant tumor-associated marker for targeting with diagnostic and therapeutic radiopharmaceuticals. Previously, a synthetic uPAR-binding nonapeptide, referred to as AE105, was identified using phage display methodologies and affinity maturation techniques. , The reported strong binding affinity to human uPAR (K D = 0.4 nM) made AE105 an interesting candidate for the development of nuclear imaging agents and radiotherapeutics. , AE105 was conjugated with various macrocyclic chelators to enable the coordination of copper-64, gallium-68, and lutetium-177 ...

[8] = CD1/nude (Crl:CD1-Foxn nu), 0.5 nmol, Blood
[9] = CD1/nude (Crl:CD1-Foxn nu), 0.5 nmol, HEK-uPAR xgft
[10] = CD1/nude, 5 MBq (0.5 nmol), Blood
[11] = CD1/nude, 5 MBq (0.5 nmol), Bone
[12] = CD1/nude, 5 MBq (0.5 nmol), Brain
[13] = CD1/nude, 5 MBq (0.5 nmol), Heart
[14] = CD1/nude, 5 MBq (0.5 nmol), Intestines
[15] = CD1/nude, 5 MBq (0.5 nmol), Kidneys
[16] = CD1/nude, 5 MBq (0.5 nmol), Liver
[17] = CD1/nude, 5 MBq (0.5 nmol), Lung
[18] = CD1/nude, 5 MBq (0.5 nmol), Muscle
[19] = CD1/nude, 5 MBq (0.5 nmol), Pancreas
[20] = CD1/nude, 5 MBq (0.5 nmol), Salivary glands
[21] = CD1/nude, 5 MBq (0.5 nmol), Spleen
[22] = CD1/nude, 5 MBq (0.5 nmol), Stomach
[23] = CD1/nude, 5 MBq (0.5 nmol), HEK-uPAR xgft

T1 sequence (Q03405 23-335): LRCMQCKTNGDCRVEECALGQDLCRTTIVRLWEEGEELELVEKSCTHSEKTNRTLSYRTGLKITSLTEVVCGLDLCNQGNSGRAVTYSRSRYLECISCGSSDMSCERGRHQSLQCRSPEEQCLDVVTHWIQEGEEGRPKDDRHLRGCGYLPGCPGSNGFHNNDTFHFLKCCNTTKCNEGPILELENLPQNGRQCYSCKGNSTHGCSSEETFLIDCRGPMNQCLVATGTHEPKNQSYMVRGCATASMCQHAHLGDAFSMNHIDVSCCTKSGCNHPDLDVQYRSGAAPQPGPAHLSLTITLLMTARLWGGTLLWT

| remaining at 1 h, 10 MBq/200 µL [1] [%] | remaining at 4 h, 10 MBq/200 µL [1] [%] | remaining at 24 h, 10 MBq/200 µL [1] [%] | tissue uptake at 24 h [3, 8] [%ID/g] | tissue uptake at 4 h [3, 10] [%ID/g] | tissue uptake at 4 h [3, 11] [%ID/g] | tissue uptake at 24 h [3, 11] [%ID/g] | tissue uptake at 4 h [3, 12] [%ID/g] | tissue uptake at 24 h [3, 12] [%ID/g] | tissue uptake at 4 h [3, 13] [%ID/g] | tissue uptake at 24 h [3, 13] [%ID/g] | tissue uptake at 4 h [3, 14] [%ID/g] | tissue uptake at 24 h [3, 14] [%ID/g] | tissue uptake at 4 h [3, 15] [%ID/g] | tissue uptake at 24 h [3, 15] [%ID/g] | tissue uptake at 4 h [3, 16] [%ID/g] | tissue uptake at 24 h [3, 16] [%ID/g] | tissue uptake at 4 h [3, 17] [%ID/g] | tissue uptake at 24 h [3, 17] [%ID/g] | tissue uptake at 4 h [3, 18] [%ID/g] | Molecule | further results |
| --- | --- | --- | --- | --- | --- | --- | --- | --- | --- | --- | --- | --- | --- | --- | --- | --- | --- | --- | --- | --- | --- |
| 100 ± 1 | 99 ± 1 | 99 ± 1 | 6 ± 0.5 | 16 ± 1 | 1.8 ± 0.2 | 1.2 ± 0.1 | 0.34 ± 0.03 | 0.13 ± 0.02 | 4.8 ± 0.2 | 2.5 ± 0.3 | 1.8 ± 0.2 | 0.84 ± 0.13 | 5.5 ± 0.2 | 3.6 ± 0.2 | 2.8 ± 0.3 | 1.6 ± 0.2 | 7.2 ± 0.3 | 4 ± 0.2 | 1.4 ± 0.1 | CC(C)C[C@H](NC(=O)[C@H](Cc1ccc(O)cc1)NC(=O)[C@@H](CCCNC(=N)N)NC(=O)[C@@H](CO)NC(=O)[C@H](Cc1ccccc1)NC(=O)[C@H](CC1CCCCC1)NC(=O)[C@H](CC(=O)O)NC(=O)[C@H](CCCCNC(=O)CCOCCOCCOCCOCCNC(=O)CCCc1ccc(I)cc1)NC(=O)CN1CCN(CC(=O)O)CCN(CC(=O)O)CCN(CC(=O)O)CC1)C(=O)N[C@@H](Cc1c[nH]c2ccccc12)C(=O)N[C@@H](CO)C(N)=O [[^177Lu]Lu-uPAR-02, metal not drawn] | fold higher activity retention in the HEK-uPAR xenograft than [177Lu]Lu-DOTA-AE105 [2]: over 10 fold; fold higher xenograft-to-kidney ratio than [177Lu]Lu-DOTA-AE105 [2]: > 3 fold; tissue uptake at 4 h [3, 9]: 11 ± 2 %ID/g; tissue uptake at 24 h [3, 9]: 10 ± 3 %ID/g; tissue uptake at 24 h [3, 18]: 0.9 ± 0.06 %ID/g; tissue uptake at 4 h [3, 19]: 1.8 ± 0.1 %ID/g; tissue uptake at 24 h [3, 19]: 0.92 ± 0.06 %ID/g; tissue uptake at 4 h [3, 20]: 3.2 ± 0.4 %ID/g; tissue uptake at 24 h [3, 20]: 1.8 ± 0.2 %ID/g; tissue uptake at 4 h [3, 21]: 2.2 ± 0.1 %ID/g; tissue uptake at 24 h [3, 21]: 2 ± 0.2 %ID/g; tissue uptake at 4 h [3, 22]: 1.6 ± 0.3 %ID/g; tissue uptake at 24 h [3, 22]: 0.69 ± 0.03 %ID/g; Kd [4]: 32 ± 12 nM; logD [5]: 0.25 ± 0.02; remaining at 1 h, 10 MBq/200 µL [6]: 100 ± 1%; remaining at 4 h, 10 MBq/200 µL [6]: 98 ± 1%; remaining at 24 h, 10 MBq/200 µL [6]: 98 ± 2% |
| 100 ± 1 | 99 ± 1 | 99 ± 2 | 13 ± 1 | 15 ± 1 | 1.5 ± 0.3 | 1.8 ± 0.3 | 0.31 ± 0.05 | 0.3 ± 0.01 | 4.8 ± 0.5 | 5.2 ± 0.1 | 1.8 ± 0.1 | 2 ± 0.1 | 4.1 ± 0.3 | 4.7 ± 0.2 | 3.1 ± 0.4 | 3.2 ± 0.2 | 7.5 ± 0.5 | 7.7 ± 0.7 | 1.3 ± 0.1 | CC(C)C[C@H](NC(=O)[C@H](Cc1ccc(O)cc1)NC(=O)[C@@H](CCCNC(=N)N)NC(=O)[C@@H](CO)NC(=O)[C@H](Cc1ccccc1)NC(=O)[C@H](CC1CCCCC1)NC(=O)[C@H](CC(=O)O)NC(=O)[C@H](CCCCNC(=O)CCOCCOCCOCCOCCNC(=O)c1ccc(CNC(=O)CCCc2ccc(I)cc2)cc1)NC(=O)CN1CCN(CC(=O)O)CCN(CC(=O)O)CCN(CC(=O)O)CC1)C(=O)N[C@@H](Cc1c[nH]c2ccccc12)C(=O)N[C@@H](CO)C(N)=O [[^177Lu]Lu-uPAR-03, metal not drawn] | tissue uptake at 4 h [3, 23]: 4 ± 0.3 %ID/g; tissue uptake at 24 h [3, 23]: 7.5 ± 0.2 %ID/g; tissue uptake at 24 h [3, 18]: 1.5 ± 0.1 %ID/g; tissue uptake at 4 h [3, 19]: 1.7 ± 0.1 %ID/g; tissue uptake at 24 h [3, 19]: 1.9 ± 0.2 %ID/g; tissue uptake at 4 h [3, 20]: 3.4 ± 0.4 %ID/g; tissue uptake at 24 h [3, 20]: 3.6 ± 0.2 %ID/g; tissue uptake at 4 h [3, 21]: 2.2 ± 0.2 %ID/g; tissue uptake at 24 h [3, 21]: 3 ± 0.2 %ID/g; tissue uptake at 4 h [3, 22]: 1.6 ± 0.1 %ID/g; tissue uptake at 24 h [3, 22]: 1.8 ± 0.1 %ID/g; Kd [4]: 56 ± 8 nM; logD [5]: 0.37 ± 0.14; remaining at 1 h, 10 MBq/200 µL [6]: 100%; remaining at 4 h, 10 MBq/200 µL [6]: 99 ± 1%; remaining at 24 h, 10 MBq/200 µL [6]: 98 ± 1% |
|  |  |  |  |  |  |  |  |  |  |  |  |  |  |  |  |  |  |  |  | Asp-Cha-Phe-ser-arg-Tyr-Leu-Trp-Ser (DAFSRYLWS; Printed as Asp-Cha-Phe-ser-arg-Tyr-Leu-Trp-Ser. Residue 2 is Cha (L-beta-cyclohexylalanine, written as parent Ala, as in PDB 1YWH entity 2); D-Ser4; D-Arg5; Linear; C-terminal form (acid or amide) not) [AE105] | Kd [7]: 0.4 nM |
